In BindingDB's records for doi:10.1016/j.bmcl.2011.01.107 (Institute of Chemical Physics, 2011):

Target: NAD-dependent malic enzyme (Escherichia coli K-12, maeA) (UniProt P26616)
Assay: Inhibition of Escherichia coli K-12 recombinant NAD-dependent malic enzyme by Dixon plot

Sequence of NAD-dependent malic enzyme (Escherichia coli K-12, maeA) (P26616 whole entry, looked up): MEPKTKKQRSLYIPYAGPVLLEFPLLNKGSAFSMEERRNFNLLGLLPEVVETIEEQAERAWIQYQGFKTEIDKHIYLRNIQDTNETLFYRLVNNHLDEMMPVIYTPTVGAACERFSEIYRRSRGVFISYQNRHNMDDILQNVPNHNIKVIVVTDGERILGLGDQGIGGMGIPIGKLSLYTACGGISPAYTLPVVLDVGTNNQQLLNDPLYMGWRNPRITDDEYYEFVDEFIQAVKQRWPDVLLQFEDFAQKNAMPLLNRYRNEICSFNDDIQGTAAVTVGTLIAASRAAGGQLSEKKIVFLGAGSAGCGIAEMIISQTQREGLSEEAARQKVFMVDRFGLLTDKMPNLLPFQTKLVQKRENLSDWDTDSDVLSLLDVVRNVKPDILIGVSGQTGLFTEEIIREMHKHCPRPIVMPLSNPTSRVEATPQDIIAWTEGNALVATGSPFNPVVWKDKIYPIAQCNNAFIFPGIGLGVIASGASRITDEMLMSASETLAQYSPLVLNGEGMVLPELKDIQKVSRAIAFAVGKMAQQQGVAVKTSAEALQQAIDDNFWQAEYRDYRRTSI

## COc1ccc(-c2cn([C@@H]3O[C@H](COP(=O)(O)O)[C@@H](O)[C@H]3O)nn2)cc1 [5-O-phosphate-1-N-(4'-(4''-methoxyhenyl))-[1',2',3']-triazol-beta-D-ribofuranoside]
  Ki: 57 µM
